Reference: patent publication US20090143375A1, “Tricyclic Lactam Derivatives, Their Manufacture and Use as Pharmaceutical Agents” (F. HOFFMANN-LA ROCHE AG, priority 2005, published 2009)

Target: T1, Aurora A kinase (Homo sapiens, UniProt O14965)
T1 sequence (O14965 1-403): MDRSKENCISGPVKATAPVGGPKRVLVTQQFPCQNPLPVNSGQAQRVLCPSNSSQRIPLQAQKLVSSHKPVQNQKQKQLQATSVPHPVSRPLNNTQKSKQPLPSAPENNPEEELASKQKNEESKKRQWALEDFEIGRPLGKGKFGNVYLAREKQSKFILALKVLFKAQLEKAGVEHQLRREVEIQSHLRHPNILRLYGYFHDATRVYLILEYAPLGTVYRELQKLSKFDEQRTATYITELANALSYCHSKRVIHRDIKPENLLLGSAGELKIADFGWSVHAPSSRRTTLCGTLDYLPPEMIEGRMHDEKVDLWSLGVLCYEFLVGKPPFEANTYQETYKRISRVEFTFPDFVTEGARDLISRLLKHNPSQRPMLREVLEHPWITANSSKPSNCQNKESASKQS
Assay: IC50 determination for inhibitors of Aurora A kinase (ELISA, GST-Histone H3 substrate)
Type: biochemical
Conditions: mutant Aur A kinase, 30 μM ATP, 40 minutes; read-out: IC50 Aurora A kinase inhibition
Experimental: IC50 Determination for Inhibitors of Aurora A Kinase Assay Principle
Aurora A is a serine threonine kinase involved in spindle assembly and chromosome segregation.
The assay is a typically ELISA-type assay where substrate (GST-Histone H3) is coupled to the assay-plate and is phosphorylated by the kinase. Phosphorylation is detected by a mouse anti-Phosphopeptid mAb and an HRP-labeled anti-mouse pAb. The assay is validated for IC50-determination.
Kinase activities were measured by Enzyme-Linked Immunosorbent Assay (ELISA): Maxisorp 384-well plates (Nunc) were coated with recombinant fusion protein comprising residues 1-15 of HistoneH3 fused to the N-terminus of Glutathione-S-Transferase. Plates were then blocked with a solution of 1 mg/mL I-block (Tropix cat# T2015—highly purified form of casein) in phosphate-buffered saline. […] After washing, substrate phosphorylation was detected by addition of anti-phospho-Histone H3 (Ser 10) 6G3 mAb (Cell Signaling cat #9706) and sheep anti-mouse pAb-HRP (Amersham cat# NA931V), followed by colorimetric development with TMB (3,3′,5,5′-tetramethylbenzidine from Kirkegaard & Perry Laboratories). After readout of the absorbance, IC50 values were calculated using a non-linear curve fit (XLfit software (ID Business Solution Ltd., Guilford, Surrey, UK))

IC50	Compound
80 nM	COCCN1C(=O)C(C)(C)c2cc3nc(-c4cc(C)[nH]n4)[nH]c3cc21 [Example 1, 5-(2-Methoxy-ethyl)-7,7-dimethyl-2-(5-methyl-1H-pyrazol-3-yl)-5,7-dihydro-3H-imidazo[4,5-f]indol-6-one]
40 nM	Cc1cc(-c2nc3cc4c(cc3[nH]2)N(CC(=O)Nc2ccc(F)cc2)C(=O)C4(C)C)n[nH]1 [Example 10, 2-[7,7-Dimethyl-2-(5-methyl-1H-pyrazol-3-yl)-6-oxo-6,7-dihydro-3H-imidazo[4,5-f]indol-5-yl]-N-(4-fluoro-phenyl)-acetamide]

Test system: HCT 116 cells
Assay: CellTiter-Glo assay in HCT 116 cells (antiproliferative activity)
Type: cell-based
Conditions: 120 h, HCT 116 cells (human colon carcinoma), 5 days incubation
Experimental: The CellTiter-Glo™ Luminescent Cell Viability Assay (Promega) is a homogeneous method of determining the number of viable cells in culture based on quantitation of the ATP present, which signals the presence of metabolically active cells.
HCT 116 cells (human colon carcinoma, ATCC-No. CCl-247) were cultivated in RPMI 1640 medium with GlutaMAX™ I (Invitrogen, Cat-No. 61870-010), 2.5% Fetal Calf Serum (FCS, Sigma Cat-No. F4135 (FBS)); 100 Units/ml penicillin/100 μg/ml streptomycin (=Pen/Strep from Invitrogen Cat. No. 15140). For the assay the cells were seeded in 384 well plates, 1000 cells per well, in the same medium. The next day the test compounds were added in various concentrations ranging from 30 μM to 0.0015 μM (10 concentrations, 1:3 diluted). After 5 days the CellTiter-Glo™ assay was done according to the instructions of the manufacturer (CellTiter-Glo™ Luminescent Cell Viability Assay, from Promega). In brief: the cell-plate was equilibrated to room temperature for approximately 30 minutes and than the CellTiter-Glo™ reagent was added. The contents were carefully mixed for 15 minutes to induce cell lysis. After 45 minutes the luminescent signal was measured in Victor 2, (scanning multiwell spectrophotometer, Wallac).
1st. day: • Medium: RPMI 1640 with GlutaMAX™ I (Invitrogen, Cat-Nr. 61870), 5% FCS (Sigma Cat.-No. F4135), Pen/Strep (Invitrogen, Cat No. 15140). • HCT116 (ATCC-No. CCl-247): 1000 cells in 60 μl per well of 384 well plate (Greiner 781098, μClear-plate white) • After seeding incubate plates 24 h at 37° C., 5% CO2 2nd. Day: Induction (Treatment with Compounds, 10 Concentrations):
In order to achieve a final concentration of 30 μM as highest concentration 3.5 μl of 10 mM compound stock solution were added directly to 163 μl media. Then step e) of the dilution procedure described below, was followed.
In order to achieve the second highest to the lowest concentrations, a serial dilution with dilution steps of 1:3 was followed according to the procedure (a-e) as described here below: • a) for the second highest concentration add 10 μl of 10 mM stock solution of compound to 20 μl dimethylsulfoxide (DMSO) • b) dilute 8×1:3 (always 10 μl to 20 μl DMSO) in this DMSO dilution row (results in 9 wells with concentrations from 3333.3 μM to 0.51 μM) • c) dilute each concentration 1:47.6 (3.5 μl compound dilution to 163 μl media) • e) add 10 μl of every concentration to 60 μl media in the cell plate resulting in final concentration of DMSO: 0.3% in every well and resulting in 10 final concentration of compounds ranging from 30 μM to 0.0015 μM. • Each compound is tested in triplicate. • Incubate 120 h (5 days) at 37° C., 5% CO2
• Add 30 μl CellTiter-Glo™ Reagent (prepared from CellTiter-Glo™ Buffer and CellTiter-Glo™ Substrate (lyophilized) purchased from Promega) per well, • shake 15 minutes at room temperature • incubate further 45 minutes at room temperature without shaking
• Victor 2 scanning multiwell spectrophotometer (Wallac), Luminescence mode (0.5 sec/read, 477 nm) • Determine IC50 using a non-linear curve fit (XLfit software (ID Business Solution Ltd., Guilford, Surrey, UK))

Compound	IC50
CCN(CC)CCN1C(=O)C(C)(C)c2cc3nc(-c4cc(C)[nH]n4)[nH]c3cc21 [Example 13, 5-(2-Diethylamino-ethyl)-7,7-dimethyl-2-(5-methyl-1H-pyrazol-3-yl)-5,7-dihydro-3H-imidazo[4,5-f]indol-6-one]	100 to 5000 nM
CCCc1cc(-c2nc3cc4c(cc3[nH]2)C(C)(C)C(=O)N4CCCN2CCOCC2)[nH]n1 [Example 6, 7,7-Dimethyl-5-(3-morpholin-4-yl-propyl)-2-(5-propyl-2H-pyrazol-3-yl)-5,7-dihydro-1H-imidazo[4,5-f]indol-6-one]	1240 nM
CC1(C)C(=O)N(CCCN2CCOCC2)c2cc3nc(-c4cc(C(F)(F)F)n[nH]4)[nH]c3cc21 [Example 4, 7,7-Dimethyl-5-(3-morpholin-4-yl-propyl)-2-(5-trifluoromethyl-2H-pyrazol-3-yl)-5,7-dihydro-1H-imidazo[4,5-f]indol-6-one]	100 to 5000 nM
COc1cc(CNC(=O)CN2C(=O)C(C)(C)c3cc4nc(-c5cc(C)[nH]n5)[nH]c4cc32)cc(OC)c1 [Example 11, N-(3,5-Dimethoxy-benzyl)-2-[7,7-dimethyl-2-(5-methyl-1H-pyrazol-3-yl)-6-oxo-6,7-dihydro-3H-imidazo[4,5-f]indol-5-yl]-acetamide]	100 to 5000 nM
Cc1cc(-c2nc3cc4c(cc3[nH]2)N(CC(=O)NCc2ccc(F)cc2)C(=O)C4(C)C)n[nH]1 [Example 12, 2-[7,7-Dimethyl-2-(5-methyl-1H-pyrazol-3-yl)-6-oxo-6,7-dihydro-3H-imidazo[4,5-f]indol-5-yl]-N-(4-fluoro-benzyl)-acetamide]	100 to 5000 nM
Cc1cc(-c2nc3cc4c(cc3[nH]2)N(CC(=O)Nc2ccc(F)cc2)C(=O)C4(C)C)n[nH]1 [Example 10, 2-[7,7-Dimethyl-2-(5-methyl-1H-pyrazol-3-yl)-6-oxo-6,7-dihydro-3H-imidazo[4,5-f]indol-5-yl]-N-(4-fluoro-phenyl)-acetamide]	100 to 5000 nM
Cc1cc(-c2nc3cc4c(cc3[nH]2)N(CC(=O)N2CCOCC2)C(=O)C4(C)C)n[nH]1 [Example 9, 7,7-Dimethyl-2-(5-methyl-1H-pyrazol-3-yl)-5-(2-morpholin-4-yl-2-oxo-ethyl)-5,7-dihydro-3H-imidazo[4,5-f]indol-6-one]	5830 nM
Cc1cc(-c2nc3cc4c(cc3[nH]2)C(C)(C)C(=O)N4CCCN2CCOCC2)[nH]n1 [Example 5, 7,7-Dimethyl-2-(5-methyl-2H-pyrazol-3-yl)-5-(3-morpholin-4-yl-propyl)-5,7-dihydro-1H-imidazo[4,5-f]indol-6-one]	100 to 5000 nM

The remaining lines, values ahead:

IC50	Compound
100 to 5000 nM	Cc1cc(-c2nc3cc4c(cc3[nH]2)C(C)(C)C(=O)N4CC#N)n[nH]1 [Example 2, [7,7-Dimethyl-2-(5-methyl-1H-pyrazol-3-yl)-6-oxo-6,7-dihydro-1H-imidazo[4,5-f]indol-5-yl]-acetonitrile]
5000 to 15000 nM	Cc1cc(-c2nc3cc4c(cc3[nH]2)C(C)(C)C(=O)N4CCN)n[nH]1 [Example 14, 5-(2-Amino-ethyl)-7,7-dimethyl-2-(5-methyl-1H-pyrazol-3-yl)-5,7-dihydro-1H-imidazo[4,5-f]indol-6-one]
100 to 5000 nM	COCCN1C(=O)C(C)(C)c2cc3nc(-c4cc(C)[nH]n4)[nH]c3cc21 [Example 1, 5-(2-Methoxy-ethyl)-7,7-dimethyl-2-(5-methyl-1H-pyrazol-3-yl)-5,7-dihydro-3H-imidazo[4,5-f]indol-6-one]
100 to 5000 nM	C=CCN1C(=O)C(C)(C)c2cc3nc(-c4cc(C)[nH]n4)[nH]c3cc21 [Example 3, 5-Allyl-7,7-dimethyl-2-(5-methyl-1H-pyrazol-3-yl)-5,7-dihydro-3H-imidazo[4,5-f]indol-6-one]
